Data on 2 molecules can be found in paper PMC9863965 (Molecules, 2023).

In brackets after ≈: the same amount, converted by molar mass.

For one assay, the system named is breast cancer (MCF7). As to the kind of experiment: MTT cytotoxicity assay, breast cancer (MCF7). The class given is cell-based. The source says:
(§1) The cell lines laboratory at Vacsera, Dokkey, Giza, Egypt provided colon cancer (Caco2), cervical cancer (HeLa), prostate cancer (PC3), breast cancer (MCF7), hepatocellular carcinoma (HepG2) and normal human fetal lung fibroblast (WI38). The sterility of the process was maintained using a laminar airflow cabinet. The Roswell Park Memorial Institute medium (RPMI 1640) was used to sustain the cell culture. […] The 10% heat-inactivated fetal bovine serum was used to supplement the medium. The 3-(4,5-dimethylthiazol-2-yl)-2,5-diphenyl-2H-tetrazolium bromide (MTT) assay was employed to measure cytotoxicity. A purple formazan was created from the yellow MTT via a mitochondrial reduction. For inoculation, a 96-well microplate was filled with 1 × 10^5 cells per well in 100 μL of Roswell Park Memorial Institute medium (RPMI 1640). Conditions of 5% CO2, 37 °C and 95% humidity were used to incubate the microplate for 24 h to produce a completely formed monolayer sheet. After the cells formed a confluent layer, the growth media was decanted from 96-well microplates. […] Confluent cell monolayers were injected with 0.1 mL of the extract at each concentration using a multichannel pipette, and then they were dispersed throughout the 96 wells. The cells that were treated with the extracts were incubated at 37 °C and 5% CO2 for 24 h. […] The optical density at 560 nm was determined using a microplate reader. […]
For orientation: Tetrazolium assays rely on reduction of a dye to a coloured formazan, in cell work by metabolically active cells.

In a further assay the test system is cervical cancer (HeLa). As to the kind of experiment: MTT cytotoxicity assay, cervical cancer (HeLa). It counts as cell-based.
Source text: as §1

A further assay concerns prostate cancer (PC3). Kind of assay: MTT cytotoxicity assay, prostate cancer (PC3). It counts as cell-based.
Source text: as §1

The next assay concerns colon cancer (Caco2). As to the kind of experiment: MTT cytotoxicity assay, colon cancer (Caco2). The class given is cell-based.
Source text: as §1

In assay [1] the test system is hepatocellular carcinoma (HepG2). As to the kind of experiment: MTT cytotoxicity assay, hepatocellular carcinoma (HepG2). It counts as cell-based.
Source text: as §1

Assay [2] concerns normal human fetal lung fibroblast (WI38). As to the kind of experiment: MTT cytotoxicity assay, normal fibroblast (WI38). The note with it: WI-38, mean ± standard deviation. The class given is cell-based.
Source text: as §1

Assay [3] deals with tumor microtubule proteins of cancer cells. More on the design: method as in doi:10.1016/j.molstruc.2022.132636, PMID 22721782. The note with it: cited from earlier work.

Regarding `COc1cccc2c1C(=O)c1c(O)c3c(c(O)c1C2=O)C[C@@](O)(C(=O)CO)C[C@@H]3O[C@H]1C[C@H](N)[C@H](O)[C@H](C)O1` [Doxorubicin, doxorubicin], the half-maximal inhibitory concentration (IC50) with breast cancer (MCF7) (Homo sapiens, MTT assay, breast cancer (MCF7), mean ± standard deviation) came out at 36 ± 6 µg/mL (≈ 66.2 µM); with cervical cancer (HeLa) (Homo sapiens, MTT assay, cervical cancer (HeLa), mean ± standard deviation), 40 ± 2 µg/mL (≈ 73.6 µM); in the assay on prostate cancer (PC3) (MTT assay, prostate cancer (PC3), mean ± standard deviation) it was 38 ± 2 µg/mL (≈ 69.9 µM); with colon cancer (Caco2) (Homo sapiens, Caco-2, MTT assay, colon cancer (Caco2), mean ± standard deviation), 70.1 ± 1 µg/mL (≈ 129 µM); in assay [1] (Homo sapiens, MTT assay, hepatocellular carcinoma (HepG2), mean ± standard deviation), 44 ± 3 µg/mL (≈ 81 µM); in assay [2] it was 51 ± 4 µg/mL (≈ 93.8 µM). Besides, the “SI: selectivity index” value in the assay on breast cancer (MCF7) (IC50 of non-cancer cell line (WI38) / IC50 of MCF7) turned out to be 1.4; in the assay with cervical cancer (HeLa) (IC50 of non-cancer cell line (WI38) / IC50 of HeLa), 1.2; with prostate cancer (PC3) (IC50 of non-cancer cell line (WI38) / IC50 of PC3) it was 1.3; with colon cancer (Caco2) (IC50 of non-cancer cell line (WI38) / IC50 of Caco2), 0.7; in assay [1] (IC50 of non-cancer cell line (WI38) / IC50 of HepG2) it was 1.1.
Consider Calystegine B, for which the “antitumor effect on assembly of tumor microtubule proteins” value in assay [3] is recorded as “preventing the assembly of tumor microtubule proteins”.

As usually defined, the IC50 is the point on the concentration scale where inhibition reaches its midpoint. The low end stands for greater potency in that assay, the high end for weaker potency in that assay.
